Holding throughout (experiment): relative viability (nuclei count vs DMSO), 5 days (fraction); higher = more cells survive
Compound in the test “AZ3146 + Pictilisib”: CN1CCC(CC1)OC2=CC(=C(C=C2)NC3=NC=C4C(=N3)N(C(=O)N4C)C5CCCC5)OC [AZ3146] + CS(=O)(=O)N1CCN(Cc2cc3nc(-c4cccc5[nH]ncc45)nc(N4CCOCC4)c3s2)CC1 [Pictilisib] (partner 1 µM)
The method, boiled down: (§1)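 Relative viability equals treated-well nuclei counts divided by vehicle-well nuclei counts. Counts came from 4× images of lung cancer cell lines grown in 1536-well plates for 5 days after pin-tool dosing on the day after seeding. Dosing used one drug alone or a fixed anchor-drug dose plus five library-drug doses (not always all listed) in √10 steps, and values are medians of duplicate plates.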

Compound in the test “GSK-J4 + Foretinib”: CCOC(=O)CCNc1cc(N2CCc3ccccc3CC2)nc(-c2ccccn2)n1 [GSK-J4] + COc1cc2c(Oc3ccc(NC(=O)C4(C(=O)Nc5ccc(F)cc5)CC4)cc3F)ccnc2cc1OCCCN1CCOCC1 [Foretinib] (partner 0.25 µM)
The method, boiled down:
as §1

Compound in the test “AZ3146 + Crizotinib”: CN1CCC(CC1)OC2=CC(=C(C=C2)NC3=NC=C4C(=N3)N(C(=O)N4C)C5CCCC5)OC [AZ3146] + C[C@@H](Oc1cc(-c2cnn(C3CCNCC3)c2)cnc1N)c1c(Cl)ccc(F)c1Cl [Crizotinib] (partner 1 µM)
Put shortly: as §1

Compound in the test “AZ3146 + Linsitinib”: CN1CCC(CC1)OC2=CC(=C(C=C2)NC3=NC=C4C(=N3)N(C(=O)N4C)C5CCCC5)OC [AZ3146] + C[C@]1(O)C[C@@H](c2nc(-c3ccc4ccc(-c5ccccc5)nc4c3)c3c(N)nccn32)C1 [Linsitinib] (partner 1 µM)
Put shortly:
as §1

With UMC-11, the relative viability with AZ3146 + Pictilisib (first compound 0.08 µM) worked out at 0.698; with AZ3146 + Pictilisib (first compound 0.253 µM) it was 0.99; with AZ3146 + Pictilisib (first compound 0.8 µM), 0.706; with AZ3146 + Pictilisib (first compound 2.53 µM), 0.802; with AZ3146 + Pictilisib (first compound 8 µM), 0.513; in the test with GSK-J4 + Foretinib (first compound 0.5 µM), 0.896. Also, the relative viability in the test with GSK-J4 + Foretinib (first compound 5 µM) was determined as 1.07; with GSK-J4 + Foretinib (first compound 15.81 µM) it was 1.08; with GSK-J4 + Foretinib (first compound 50 µM), 0.556; with AZ3146 + Crizotinib (first compound 0.08 µM), 0.569; in the test with AZ3146 + Crizotinib (first compound 0.253 µM) it was 0.636; with AZ3146 + Crizotinib (first compound 0.8 µM) it was 0.461. For the same cell line, the relative viability stood at 0.177 in the test with AZ3146 + Crizotinib (first compound 2.53 µM); 0.136 in the test with AZ3146 + Crizotinib (first compound 8 µM); 0.989 with AZ3146 + Linsitinib (first compound 0.08 µM); 1.05 in the test with AZ3146 + Linsitinib (first compound 0.253 µM); 0.992 in the test with AZ3146 + Linsitinib (first compound 0.8 µM); 0.922 with AZ3146 + Linsitinib (first compound 2.53 µM). The relative viability in the test with AZ3146 + Linsitinib (first compound 8 µM) worked out at 0.577.

These data come from the supplement of paper PMC10307832.
